Data on 22 compounds can be found in patent US20240109915A1, “NOVEL ACC INHIBITORS” (Pfizer Inc., priority 2022, published 2024).

For the experiment, the target named is recombinant human ACC1 (rhACC1) (Homo sapiens (Human), UniProt Q13085). Briefly: Transcreener ADP detection FP assay, direct inhibition of rhACC1. The format is biochemical. To be noted: Geomean IC50, n ≥ 2 unless * then n = 1; 50 μM ATP, 30 μM acetyl-CoA. Here is the method: The direct inhibition of ACC1 for the compounds of the present invention was determined using preparations of recombinant human ACC1 (rhACC1) (SEQ ID NO. 1)
Two liters of SF9 cells, infected with recombinant baculovirus containing full length human ACC1 cDNA, were suspended in ice-cold lysis buffer (25 mM Tris, pH 7.5; 150 mM NaCl; 10% glycerol; 5 mM imidazole (EMD Bioscience; Gibbstown, NJ); 2 mM TCEP (BioVectra; Charlottetown, Canada); Benzonase nuclease (10000 U/100 g cell paste; Novagen; Madison, WI); EDTA-free protease inhibitor cocktail (1 tab/50 ml; Roche Diagnostics; Mannheim, Germany). Cells were lysed by 3 cycles of freeze-thaw and centrifuged at 40,000×g for 40 minutes (4° C.). Supernatant was directly loaded onto a HisTrap FF crude column (GE Healthcare; Piscataway, NJ) and eluted with an imidazole gradient up to 0.5 M over 20 column volumes (CV). ACC1-containing fractions were pooled and diluted 1:5 with 25 mM Tris, pH 7.5, 2 mM TCEP, 10% glycerol and direct loaded onto a CaptoQ (GE Healthcare) column and eluted with an NaCl gradient up to 1 M over 20 CV's. Phosphate groups were removed from purified ACC1 by incubation with lambda phosphatase (100 U/10 μM target protein; New England Biolabs; Beverly, MA) for 14 hours at 4° C.; okadaic acid was added (1 μM final concentration; Roche Diagnostics) to inhibit the phosphatase. Purified ACC1 was exchanged into 25 mM Tris, pH 7.5, 2 mM TCEP, 10% glycerol, 0.5 M NaCl by 6 hour dialysis at 4° C. Aliquots were prepared and frozen at −80° C.
Measurement of rhACC1 Inhibition rhACC1 was assayed in a Corning #3820 (Corning, Tewksbury, MA) 384-well plate using the Transcreener ADP detection FP assay kit (Bellbrook Labs, Madison, Wisconsin) using the manufacturer's recommended conditions for a 50 μM ATP reaction. The final conditions for the assay were 50 mM HEPES, pH 7.2, 10 mM MgCl2, 7.5 mM tripotassium citrate, 2 mM DTT, 0.1 mg/mL BSA, 30 μM acetyl-CoA, 50 μM ATP, and 10 mM KHCO3. Typically, a […] was run for 60 min at room temp, and 10 μl of Transcreener stop and detect buffer was added and the combination incubated at room temp for an overnight (18 hours). The data was acquired on an Envision Fluorescence reader (PerkinElmer) using a 620 excitation Cy5 FP general dual mirror, 620 excitation Cy5 FP filter, 688 emission (S) and a 688 (P) emission filter.
Regarding “2-(tert-butyl)-1′-(4-chloro-5-methoxy-1H-indole-7-carbonyl)-5H-spiro[benzo[d]thiazole-6,4′-piperidin]-4(7H)-one [Example 37]”, the half-inhibitory concentration (IC50) – broadly, the concentration at which inhibition is half-maximal – amounted to 1.3 nM.

On to `CCOc1cc(C(=O)N2CCC3(CC2)Cc2sc(C(C)(C)C)nc2C(O)C3)cc2c(C)nn(C)c12` (racemic) [Example 109, rac-(R)-(2-(tert-butyl)-4-hydroxy-4,7-dihydro-5H-spiro[benzo[d]thiazole-6,4′-piperidin]-1′-yl)(7-ethoxy-1,3-dimethyl-1H-indazol-5-yl)methanone], for which the IC50 was 23.2 nM.

On to `Cc1n[nH]c2c(C)cc(C(=O)N3CCC4(CC3)CC(=O)c3nc(C5(C)CC5)sc3C4)cc12` [Example 1, 1′-(3,7-dimethyl-2H-indazole-5-carbonyl)-2-(1-methylcyclopropyl)-5H-spiro[benzo[d]thiazole-6,4′-piperidin]-4(7H)-one], for which the IC50 was found to be 10.6 nM.

On to `Cc1n[nH]c2c(C)cc(C(=O)N3CCC4(CC3)CC(=O)c3nc(C(C)(C)C(C)C)sc3C4)cc12` [Example 3, 1′-(3,7-dimethyl-1H-indazole-5-carbonyl)-2-(2,3-dimethylbutan-2-yl)-5H-spiro[benzo[d]thiazole-6,4′-piperidin]-4(7H)-one], for which the IC50 stood at 7.9 nM.

Take `CCc1nc2c(s1)CC1(CCN(C(=O)c3cc(C)c4[nH]nc(C)c4c3)CC1)CC2=O` [Example 6, 1′-(3,7-dimethyl-1H-indazole-5-carbonyl)-2-ethyl-5H-spiro[benzo[d]thiazole-6,4′-piperidin]-4(7H)-one]: the half-inhibitory concentration (IC50) worked out at 45.5 nM.

For `Cc1n[nH]c2c(C)cc(C(=O)N3CCC4(CC3)CC(=O)c3nc(C56CC(C5)C6)sc3C4)cc12` [Example 7, 2-(bicyclo[1.1.1]pentan-1-yl)-1′-(3,7-dimethyl-1H-indazole-5-carbonyl)-5H-spiro[benzo[d]thiazole-6,4′-piperidin]-4(7H)-one], the half-maximal inhibitory concentration (IC50) turned out to be 11 nM.

Consider `CNc1ccc2c(C)cc(C(=O)N3CCC4(CC3)CC(=O)c3nc(C(C)C)sc3C4)cc2n1` [Example 8, 2-isopropyl-1′-(5-methyl-2-(methylamino)quinoline-7-carbonyl)-5H-spiro[benzo[d]thiazole-6,4′-piperidin]-4(7H)-one], for which the 50% inhibitory concentration (IC50) stood at 5.5 nM.

`CNc1ccc2c(C)cc(C(=O)N3CCC4(CC3)CC(=O)c3nc(C5(C)CC5)sc3C4)cc2n1` [Example 9, 1′-(5-methyl-2-(methylamino)quinoline-7-carbonyl)-2-(1-methylcyclopropyl)-5H-spiro[benzo[d]thiazole-6,4′-piperidin]-4(7H)-one]: the concentration for half-maximal inhibition (IC50) was 13.4 nM.

With `COc1cc(C(=O)N2CCC3(CC2)CC(=O)c2nc(C(C)C)sc2C3)cc2c(C)nn(C)c12` [Example 10, 2-isopropyl-1′-(7-methoxy-1,3-dimethyl-1H-indazole-5-carbonyl)-5H-spiro[benzo[d]thiazole-6,4′-piperidin]-4(7H)-one], the concentration for half-maximal inhibition (IC50) is 10 nM.

As to `COc1cc(C(=O)N2CCC3(CC2)CC(=O)c2nc(C4(C)CC4)sc2C3)cc2c(C)nn(C)c12` [Example 11, 1′-(7-methoxy-1,3-dimethyl-1H-indazole-5-carbonyl)-2-(1-methylcyclopropyl)-5H-spiro[benzo[d]thiazole-6,4′-piperidin]-4(7H)-one], the IC50 was found to be 4.5 nM.

In the case of `[2H]C([2H])([2H])C(c1nc2c(s1)CC1(CCN(C(=O)c3cc(OC)c4c(c3)c(C)nn4C)CC1)CC2=O)(C([2H])([2H])[2H])C([2H])([2H])[2H]` [Example 12, 1′-(7-methoxy-1,3-dimethyl-1H-indazole-5-carbonyl)-2-(2-(methyl-d3)propan-2-yl-1,1,1,3,3,3-d6)-5H-spiro[benzo[d]thiazole-6,4′-piperidin]-4(7H)-one], the half-inhibitory concentration (IC50) amounted to 5.2 nM.

For the compound `CCNc1cnc2c(C)cc(C(=O)N3CCC4(CC3)CC(=O)c3nc(C(C)(C)C)sc3C4)cc2c1` [Example 18, 2-(tert-butyl)-1′-(3-(ethylamino)-8-methylquinoline-6-carbonyl)-5H-spiro[benzo[d]thiazole-6,4′-piperidin]-4(7H)-one], the IC50 turned out to be 3.2 nM.

In the case of `CCOc1cnc2c(C)cc(C(=O)N3CCC4(CC3)CC(=O)c3nc(C(C)(C)C)sc3C4)cc2c1` [Example 20, 2-(tert-butyl)-1′-(3-ethoxy-8-methylquinoline-6-carbonyl)-5H-spiro[benzo[d]thiazole-6,4′-piperidin]-4(7H)-one], the half-inhibitory concentration (IC50) amounted to 30.1 nM.

In the case of `CSc1cnc2c(C)cc(C(=O)N3CCC4(CC3)CC(=O)c3nc(C(C)(C)C)sc3C4)cc2c1` [Example 21, 2-(tert-butyl)-1′-(8-methyl-3-(methylthio)quinoline-6-carbonyl)-5H-spiro[benzo[d]thiazole-6,4′-piperidin]-4(7H)-one], the concentration for half-maximal inhibition (IC50) was determined as 3.6 nM.

Consider `CN(C)c1cc(C(=O)N2CCC3(CC2)CC(=O)c2nc(C(C)(C)C)sc2C3)cc(-c2ccc(C(N)=O)cc2)n1` [Example 22, 4-(4-(2-(tert-butyl)-4-oxo-4,7-dihydro-5H-spiro[benzo[d]thiazole-6,4′-piperidine]-1′-carbonyl)-6-(dimethylamino)pyridin-2-yl)benzamide], for which the IC50 is 0.9 nM.

For `COc1cc(C(=O)N2CCC3(CC2)CC(=O)c2nc(C(C)(C)C)sc2C3)cc(-c2ccc(C(N)=O)cc2)n1` [Example 23, 4-(4-(2-(tert-butyl)-4-oxo-4,7-dihydro-5H-spiro[benzo[d]thiazole-6,4′-piperidine]-1′-carbonyl)-6-methoxypyridin-2-yl)benzamide], the half-maximal inhibitory concentration (IC50) came out at 7.2 nM.

For `CNc1nccc2c(C)cc(C(=O)N3CCC4(CC3)CC(=O)c3nc(C(C)(C)C)sc3C4)cc12` [Example 24, 2-(tert-butyl)-1′-(5-methyl-1-(methylamino)isoquinoline-7-carbonyl)-5H-spiro[benzo[d]thiazole-6,4′-piperidin]-4(7H)-one], the IC50 was determined as 3.1 nM.

For `Cc1cc(C(=O)N2CCC3(CC2)CC(=O)c2nc(C(C)(C)C)sc2C3)cc2c(C3CC3)nccc12` [Example 25, 2-(tert-butyl)-1′-(1-cyclopropyl-5-methylisoquinoline-7-carbonyl)-5H-spiro[benzo[d]thiazole-6,4′-piperidin]-4(7H)-one], the IC50 was found to be 6.6 nM.

As to `Cc1cnc(C)c2cc(C(=O)N3CCC4(CC3)CC(=O)c3nc(C(C)(C)C)sc3C4)ccc12` [Example 27, 2-(tert-butyl)-1′-(1,4-dimethylisoquinoline-7-carbonyl)-5H-spiro[benzo[d]thiazole-6,4′-piperidin]-4(7H)-one], the 50% inhibitory concentration (IC50) is 29.5 nM.

For the compound `COc1cc(C(=O)N2CCC3(CC2)CC(=O)c2nc(C(C)(C)C)sc2C3)cc2c(C)nccc12` [Example 28, 2-(tert-butyl)-1′-(5-methoxy-1-methylisoquinoline-7-carbonyl)-5H-spiro[benzo[d]thiazole-6,4′-piperidin]-4(7H)-one], the concentration for half-maximal inhibition (IC50) worked out at 6.2 nM.

On to `CCc1nccc2c(OC)cc(C(=O)N3CCC4(CC3)CC(=O)c3nc(C(C)(C)C)sc3C4)cc12` [Example 29, 2-(tert-butyl)-1′-(1-ethyl-5-methoxyisoquinoline-7-carbonyl)-5H-spiro[benzo[d]thiazole-6,4′-piperidin]-4(7H)-one], for which the 50% inhibitory concentration (IC50) is 11.1 nM.

Consider `CC(C)Nc1ccc2ccc(C(=O)N3CCC4(CC3)CC(=O)c3nc(C(C)(C)C)sc3C4)cc2n1` [Example 30, 2-(tert-butyl)-1′-(2-(isopropylamino)quinoline-7-carbonyl)-5H-spiro[benzo[d]thiazole-6,4′-piperidin]-4(7H)-one], for which the IC50 turned out to be 4.6 nM.
